Source: PubChem BioAssay AID1963875 (Molecular Pharmacology Branch, DTP, NCI, 2024)

System: KRAS-mutant PDC complex spheroid viability
Test: Anticancer human tumor 186277-243-T-J2-PDC patient-derived colon adenocarcinoma cell line growth inhibition [KRAS2]
Settings: for IC50: curve of first compound; for viability, T/C: stronger effect = lower value
Method in brief: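 KRAS-mutant tumor cells were grown as spheroids with HUVEC endothelial cells and human MSCs as stroma. Targeted agents were tested alone and with KRAS pathway inhibitors. Doses started at or near clinical Cmax, or 10 microM, descending half-log.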

[1] = second compound 0.1 µM, first compound 0.0316 µM
[2] = second compound 0.1 µM, first compound 0.1 µM
[3] = second compound 0.1 µM, first compound 0.316 µM
[4] = second compound 0.1 µM, first compound 1 µM
[5] = second compound 0.1 µM, first compound 3.16 µM
[6] = second compound 0.1 µM, first compound 10 µM
[7] = second compound 0.316 µM, first compound 0.0316 µM
[8] = second compound 0.316 µM, first compound 0.1 µM
[9] = second compound 0.316 µM, first compound 0.316 µM
[10] = second compound 0.316 µM, first compound 1 µM
[11] = second compound 0.316 µM, first compound 3.16 µM
[12] = second compound 0.316 µM, first compound 10 µM
[13] = second compound 1 µM, first compound 0.0316 µM
[14] = second compound 1 µM, first compound 0.1 µM
[15] = second compound 1 µM, first compound 0.316 µM
[16] = second compound 1 µM, first compound 1 µM
[17] = second compound 1 µM, first compound 3.16 µM
[18] = second compound 1 µM, first compound 10 µM
[19] = second compound 3.16 µM, first compound 0.0316 µM
[20] = second compound 3.16 µM, first compound 0.1 µM
[21] = second compound 3.16 µM, first compound 0.316 µM
[22] = second compound 3.16 µM, first compound 1 µM
[23] = second compound 3.16 µM, first compound 3.16 µM
[24] = second compound 3.16 µM, first compound 10 µM
[25] = second compound 10 µM, first compound 0.0316 µM
[26] = second compound 10 µM, first compound 0.1 µM
[27] = second compound 10 µM, first compound 0.316 µM
[28] = second compound 10 µM, first compound 1 µM
[29] = second compound 10 µM, first compound 3.16 µM
[30] = second compound 10 µM, first compound 10 µM
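Throughout, for viability, T/C: viability read after seven days of compound exposure; 100% = DMSO vehicle-treated spheroids so lower means less viable.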

| Structure (SMILES) | IC50 (second compound 0.1 µM) | IC50 (second compound 0.316 µM) | IC50 (second compound 1 µM) | IC50 (second compound 3.16 µM) | IC50 (second compound 10 µM) | viability, T/C [1] | viability, T/C [2] | viability, T/C [3] | viability, T/C [4] | viability, T/C [5] | viability, T/C [6] | viability, T/C [7] | viability, T/C [8] | viability, T/C [9] | viability, T/C [13] | viability, T/C [14] | viability, T/C [19] | viability, T/C [20] | viability, T/C [25] | viability, T/C [26] | other results |
| --- | --- | --- | --- | --- | --- | --- | --- | --- | --- | --- | --- | --- | --- | --- | --- | --- | --- | --- | --- | --- | --- |
| COC(=O)c1ccc2c(C(=Nc3ccc(N(C)C(=O)CN4CCN(C)CC4)cc3)c3ccccc3)c(O)[nH]c2c1 + CC1OCC2(CCN(c3cnc(Sc4ccnc(N)c4Cl)c(N)n3)CC2)C1N | 2.14 µM | 1.85 µM | 1.51 µM | 0.692 µM | 0.368 µM | 105% | 108% | 116% | 120% | 18% | 12.9% | 108% | 105% | 113% | 116% | 108% | 103% | 93.2% | 83% | 82% | viability, T/C [10]: 98.9%; viability, T/C [11]: 4.62%; viability, T/C [12]: 10.2%; viability, T/C [15]: 100%; viability, T/C [16]: 74.8%; viability, T/C [17]: 4.4%; viability, T/C [18]: 4.44%; viability, T/C [21]: 94%; viability, T/C [22]: 29.4%; viability, T/C [23]: 1.17%; viability, T/C [24]: 1.68%; viability, T/C [27]: 54.5%; viability, T/C [28]: 15.6%; viability, T/C [29]: 0.48%; viability, T/C [30]: 0.71% |
| Cn1ncnc1[C@H]1c2n[nH]c(=O)c3cc(F)cc(c23)N[C@@H]1c1ccc(F)cc1 + C=CC(=O)N1CCN(c2nc(=O)n(-c3c(C)ccnc3C(C)C)c3nc(-c4c(O)cccc4F)c(F)cc23)C(C)C1 | > 0.1 µM | > 0.1 µM | > 0.1 µM | > 0.1 µM | 0.00332 µM | 95% | 75.8% |  |  |  |  | 87.8% | 79% |  | 85.2% | 67.2% | 61.6% | 50.6% | 32.9% | 24.1% | viability, T/C (second compound 0.1 µM, first compound 0.000316 µM): 98.5%; viability, T/C (second compound 0.1 µM, first compound 0.001 µM): 97.1%; viability, T/C (second compound 0.1 µM, first compound 0.00316 µM): 111%; viability, T/C (second compound 0.1 µM, first compound 0.01 µM): 105%; viability, T/C (second compound 0.316 µM, first compound 0.000316 µM): 106%; viability, T/C (second compound 0.316 µM, first compound 0.001 µM): 114%; viability, T/C (second compound 0.316 µM, first compound 0.00316 µM): 105%; viability, T/C (second compound 0.316 µM, first compound 0.01 µM): 103%; viability, T/C (second compound 1 µM, first compound 0.000316 µM): 106%; viability, T/C (second compound 1 µM, first compound 0.001 µM): 105%; viability, T/C (second compound 1 µM, first compound 0.00316 µM): 108%; viability, T/C (second compound 1 µM, first compound 0.01 µM): 98.7%; viability, T/C (second compound 3.16 µM, first compound 0.000316 µM): 99.6%; viability, T/C (second compound 3.16 µM, first compound 0.001 µM): 101%; viability, T/C (second compound 3.16 µM, first compound 0.01 µM): 76.5%; viability, T/C (second compound 10 µM, first compound 0.000316 µM): 45%; viability, T/C (second compound 10 µM, first compound 0.001 µM): 60.2%; viability, T/C (second compound 10 µM, first compound 0.00316 µM): 51%; viability, T/C (second compound 10 µM, first compound 0.01 µM): 28.3% |
| Cn1nccc1Nc1nccc(-c2cc3c(s2)C(C)(C)N(CCN2CCOCC2)C3=O)n1 + C=CC(=O)N1CCN(c2nc(=O)n(-c3c(C)ccnc3C(C)C)c3nc(-c4c(O)cccc4F)c(F)cc23)C(C)C1 | 0.415 µM | 0.507 µM | 0.497 µM | 0.289 µM | 0.102 µM | 101% | 89.7% | 62.6% | 10.8% | 5.84% | 9.07% | 92.9% | 91.9% | 73.7% | 97.5% | 85.5% | 89.1% | 83.5% | 70.3% | 50.8% | viability, T/C [10]: 15.9%; viability, T/C [11]: 7.21%; viability, T/C [12]: 9.45%; viability, T/C [15]: 74.2%; viability, T/C [16]: 12.6%; viability, T/C [17]: 8.16%; viability, T/C [18]: 10.1%; viability, T/C [21]: 47.4%; viability, T/C [22]: 9.35%; viability, T/C [23]: 11.3%; viability, T/C [24]: 9.1%; viability, T/C [27]: 12.8%; viability, T/C [28]: 5.63%; viability, T/C [29]: 2.98%; viability, T/C [30]: 2.56% |
